Values of other authors as cited in patent US20130065255A1, “Biomarker to Measure Drug Efficacy in Enteropathic Disease” (priority 2011, published 2013).

How the values were obtained:
[1] = 20 mg simvastatin dose, healthy volunteers, Park et al
[2] = humans

SMILES | SVA Cmax [1] [ng/mL] | dose excreted unchanged in the urine [2]
CCC(C)(C)C(=O)O[C@H]1C[C@@H](C)C=C2C=C[C@H](C)[C@H](CC[C@@H](O)C[C@@H](O)CC(=O)O)[C@H]21 [Simvastatin acid, simvastatin acid] | 1.2 ± 1.0 | –
Cc1ncc2n1-c1ccc(Cl)cc1C(c1ccccc1F)=NC2 [midazolam] | – | less than 1%
